Source: PubChem BioAssay (NCI)
Where “and” joins values, the source holds several entries; their conditions need not be identical. Identical values can stand only once.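 The compound was tested at five concentrations on cells cultured in 96-well plates, with a 48-hour exposure period. GI50 is the concentration that inhibits growth by half. TGI: total growth inhibition.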

Tests used:
Assay in all cases: NCI-60 cell line screen, 48 h; in the data active = GI50 below about 0.43 µM; inactive = the rest
CAKI-1 renal = system: CAKI-1 renal
IGROV1 ovarian = system: IGROV1 ovarian
SK-MEL-2 melanoma = system: SK-MEL-2 melanoma
HT29 colon = system: HT29 colon
T-47D breast = system: T-47D breast
PC-3 prostate = system: PC-3 prostate
SN12C renal = system: SN12C renal
MALME-3M melanoma = system: MALME-3M melanoma
HCT-15 colon = system: HCT-15 colon
NCI-H522 lung = system: NCI-H522 lung
UACC-62 melanoma = system: UACC-62 melanoma
EKVX NSCLC = system: EKVX NSCLC
SF-539 CNS = system: SF-539 CNS
SNB-75 CNS = system: SNB-75 CNS
MDA-MB-231 breast = system: MDA-MB-231 breast
HL-60(TB) leukemia = system: HL-60(TB) leukemia
CCRF-CEM leukemia = system: CCRF-CEM leukemia
SK-OV-3 ovarian = system: SK-OV-3 ovarian
SK-MEL-28 melanoma = system: SK-MEL-28 melanoma
HOP-92 NSCLC = system: HOP-92 NSCLC
TK-10 renal = system: TK-10 renal
A549 NSCLC = system: A549 NSCLC
OVCAR-5 ovarian = system: OVCAR-5 ovarian
M14 melanoma = system: M14 melanoma
MCF7 breast = system: MCF7 breast
HCC-2998 colon = system: HCC-2998 colon
BT-549 breast = system: BT-549 breast
RXF 393 renal = system: RXF 393 renal
NCI-H460 lung = system: NCI-H460 lung
HS 578T breast = system: HS 578T breast
OVCAR-3 ovarian = system: OVCAR-3 ovarian
SNB-19 CNS = system: SNB-19 CNS
SK-MEL-5 melanoma = system: SK-MEL-5 melanoma
OVCAR-4 ovarian = system: OVCAR-4 ovarian
MDA-MB-435 = system: MDA-MB-435
DU-145 prostate = system: DU-145 prostate
RPMI-8226 leukemia = system: RPMI-8226 leukemia
NCI-H226 lung = system: NCI-H226 lung
MOLT-4 leukemia = system: MOLT-4 leukemia
OVCAR-8 ovarian = system: OVCAR-8 ovarian
SW-620 colon = system: SW-620 colon
NCI-H23 lung = system: NCI-H23 lung
HOP-62 NSCLC = system: HOP-62 NSCLC
U251 CNS = system: U251 CNS
UACC-257 melanoma = system: UACC-257 melanoma
HCT-116 colon = system: HCT-116 colon
UO-31 renal = system: UO-31 renal
LOX IMVI melanoma = system: LOX IMVI melanoma
SF-268 CNS = system: SF-268 CNS
NCI/ADR-RES ovarian = system: NCI/ADR-RES ovarian
A498 renal = system: A498 renal
SF-295 CNS = system: SF-295 CNS
786-0 renal = system: 786-0 renal
K-562 leukemia = system: K-562 leukemia
ACHN renal = system: ACHN renal
COLO 205 colon = system: COLO 205 colon
KM12 colon = system: KM12 colon
SR leukemia = system: SR leukemia

O=C(Cc1ccc(-c2ccc(OCCN3CCOCC3)cc2)cn1)NCc1ccccc1
> 50.2 µM: TGI (RPMI-8226 leukemia)
16.2 µM and > 10 µM: TGI (NCI-H460 lung)
> 7.88 µM: TGI (KM12 colon)
8.59 µM and > 7.16 µM: TGI (HOP-92 NSCLC)
> 36.2 µM: TGI (OVCAR-8 ovarian)
94.9 µM and > 10 µM: TGI (UACC-257 melanoma)
0.0831 µM: TGI (NCI-H522 lung)
0.0392 µM: TGI (MDA-MB-435)
85.8 nM and 632 nM: TGI (COLO 205 colon)
112 nM and 711 nM: GI50 (UACC-257 melanoma)
7.01 µM and > 10 µM: TGI (SK-OV-3 ovarian)
> 37.6 µM: TGI (HT29 colon)
> 88.4 µM: TGI (HOP-62 NSCLC)
55.9 µM and > 10 µM: TGI (T-47D breast)
331 nM and 82.2 nM: TGI (A498 renal)
active: GI50 (CAKI-1 renal) 70.3 nM and 50.6 nM | GI50 (IGROV1 ovarian) 94.4 nM and 70.8 nM | GI50 (SK-MEL-2 melanoma) 105 nM and 60 nM | GI50 (HT29 colon) 34.3 nM and 34.2 nM | GI50 (PC-3 prostate) 44.6 nM and 45.6 nM | GI50 (SN12C renal) 84.5 nM and 61.1 nM | GI50 (MALME-3M melanoma) 150 nM | GI50 (HCT-15 colon) 29.4 nM and 38.7 nM | GI50 (NCI-H522 lung) 22.3 nM and 24.2 nM | GI50 (UACC-62 melanoma) 0.0408 µM | GI50 (SF-539 CNS) 28.3 nM and 30.1 nM | GI50 (SNB-75 CNS) 33.3 nM and 21.8 nM | GI50 (MDA-MB-231 breast) 57.7 nM and 83.3 nM | GI50 (HL-60(TB) leukemia) 29.4 nM and 30.9 nM | GI50 (CCRF-CEM leukemia) 39.7 nM and 43.3 nM | GI50 (SK-OV-3 ovarian) 30.3 nM and 54.9 nM | GI50 (SK-MEL-28 melanoma) 46.2 nM and 211 nM | GI50 (HOP-92 NSCLC) 54.3 nM and 353 nM | GI50 (A549 NSCLC) 40.5 nM and 53.7 nM | GI50 (OVCAR-5 ovarian) 60.5 nM and 119 nM | GI50 (M14 melanoma) 0.0285 µM | GI50 (MCF7 breast) < 16.4 nM and 35.6 nM | GI50 (HCC-2998 colon) 31.6 nM and 166 nM | GI50 (BT-549 breast) 159 nM and 76.7 nM | GI50 (RXF 393 renal) 10.8 nM | GI50 (NCI-H460 lung) 35.5 nM and 37.1 nM | GI50 (HS 578T breast) 38.1 nM and 28.4 nM | GI50 (OVCAR-3 ovarian) 0.0352 µM | GI50 (SNB-19 CNS) 52.8 nM and 44.8 nM | GI50 (SK-MEL-5 melanoma) 28.6 nM and 39.9 nM | GI50 (MDA-MB-435) 16.2 nM | GI50 (DU-145 prostate) 32.4 nM and 38.7 nM | GI50 (RPMI-8226 leukemia) 42.7 nM and 35.8 nM | GI50 (NCI-H226 lung) 244 nM and 112 nM | GI50 (MOLT-4 leukemia) 99.9 nM and 68.5 nM | GI50 (OVCAR-8 ovarian) 46.6 nM and 49.3 nM | GI50 (SW-620 colon) 37.6 nM and 38.8 nM | GI50 (NCI-H23 lung) 45.8 nM and 49.3 nM | GI50 (HOP-62 NSCLC) 37.2 nM and 66 nM | GI50 (U251 CNS) 41.7 nM and 37.7 nM | GI50 (HCT-116 colon) 37.3 nM and 39.9 nM | GI50 (UO-31 renal) 82.1 nM and 200 nM | GI50 (LOX IMVI melanoma) 61.2 nM and 63.6 nM | GI50 (SF-268 CNS) 83 nM and 332 nM | GI50 (NCI/ADR-RES ovarian) 33.4 nM and 34.1 nM | GI50 (A498 renal) 24.7 nM and 27.7 nM | GI50 (SF-295 CNS) 29.6 nM and 34.7 nM | GI50 (786-0 renal) 67.5 nM and 85.7 nM | GI50 (K-562 leukemia) 25.5 nM and 26.4 nM | GI50 (ACHN renal) 85.7 nM and 81.1 nM | GI50 (COLO 205 colon) 29.1 nM and 36.1 nM | GI50 (KM12 colon) 32 nM and 38.7 nM
> 100 µM: TGI (CAKI-1 renal) | TGI (IGROV1 ovarian) | TGI (SK-MEL-2 melanoma) | TGI (PC-3 prostate) | TGI (SN12C renal) | TGI (MALME-3M melanoma) | TGI (HCT-15 colon) | TGI (UACC-62 melanoma) | TGI (EKVX NSCLC) | TGI (SNB-75 CNS) | TGI (MDA-MB-231 breast) | TGI (CCRF-CEM leukemia) | TGI (SK-MEL-28 melanoma) | TGI (TK-10 renal) | TGI (A549 NSCLC) | TGI (OVCAR-5 ovarian) | TGI (MCF7 breast) | TGI (HS 578T breast) | TGI (SNB-19 CNS) | TGI (OVCAR-4 ovarian) | TGI (NCI-H226 lung) | TGI (MOLT-4 leukemia) | TGI (SW-620 colon) | TGI (NCI-H23 lung) | TGI (U251 CNS) | TGI (HCT-116 colon) | TGI (UO-31 renal) | TGI (LOX IMVI melanoma) | TGI (SF-268 CNS) | TGI (NCI/ADR-RES ovarian) | TGI (SF-295 CNS) | TGI (786-0 renal) | TGI (K-562 leukemia) | TGI (ACHN renal)
220 nM and 1250 nM: TGI (SK-MEL-5 melanoma)
49.7 nM: TGI (RXF 393 renal)
1.76 µM: TGI (M14 melanoma)

CCSc1nc(N)c(C#N)c(-c2ccc(OC)c(OC)c2)c1C#N
49.3 µM: TGI (786-0 renal)
45.2 µM: TGI (UACC-62 melanoma)
45.1 µM: TGI (OVCAR-8 ovarian)
44.1 µM: TGI (NCI-H460 lung)
48.2 µM: TGI (LOX IMVI melanoma)
47.5 µM: TGI (HCT-116 colon)
40.3 µM: TGI (SF-539 CNS)
> 50 µM: TGI (CAKI-1 renal) | TGI (SK-MEL-2 melanoma) | TGI (T-47D breast) | TGI (PC-3 prostate) | TGI (SN12C renal) | TGI (HCT-15 colon) | TGI (EKVX NSCLC) | TGI (HL-60(TB) leukemia) | TGI (SK-OV-3 ovarian) | TGI (SK-MEL-28 melanoma) | TGI (HOP-92 NSCLC) | TGI (TK-10 renal) | TGI (A549 NSCLC) | TGI (OVCAR-5 ovarian) | TGI (MCF7 breast) | TGI (HCC-2998 colon) | TGI (BT-549 breast) | TGI (OVCAR-3 ovarian) | TGI (SNB-19 CNS) | TGI (DU-145 prostate) | TGI (RPMI-8226 leukemia) | TGI (SW-620 colon) | TGI (NCI-H23 lung) | TGI (HOP-62 NSCLC) | TGI (U251 CNS) | TGI (UACC-257 melanoma) | TGI (UO-31 renal) | TGI (NCI/ADR-RES ovarian) | TGI (SF-295 CNS) | TGI (ACHN renal) | TGI (KM12 colon)
37.6 µM: TGI (SR leukemia)
43.6 µM: TGI (IGROV1 ovarian)
inactive: GI50 (CAKI-1 renal) 16600 nM | GI50 (IGROV1 ovarian) 5850 nM | GI50 (SK-MEL-2 melanoma) 13300 nM | GI50 (T-47D breast) > 50 µM | GI50 (PC-3 prostate) 10400 nM | GI50 (SN12C renal) 15100 nM | GI50 (HCT-15 colon) > 50000 nM | GI50 (NCI-H522 lung) 10200 nM | GI50 (SR leukemia) 11.8 µM | GI50 (UACC-62 melanoma) 8.65 µM | GI50 (EKVX NSCLC) 32.2 µM | GI50 (SF-539 CNS) 19000 nM | GI50 (MDA-MB-231 breast) 11700 nM | GI50 (HL-60(TB) leukemia) 21800 nM | GI50 (SK-OV-3 ovarian) 15400 nM | GI50 (SK-MEL-28 melanoma) > 50000 nM | GI50 (HOP-92 NSCLC) 6490 nM | GI50 (TK-10 renal) 49.6 µM | GI50 (A549 NSCLC) 17000 nM | GI50 (OVCAR-5 ovarian) > 50000 nM | GI50 (M14 melanoma) 18.7 µM | GI50 (MCF7 breast) 10600 nM | GI50 (HCC-2998 colon) 37900 nM | GI50 (BT-549 breast) 39500 nM | GI50 (NCI-H460 lung) 13800 nM | GI50 (HS 578T breast) 13100 nM | GI50 (OVCAR-3 ovarian) 26 µM | GI50 (SNB-19 CNS) 24700 nM | GI50 (SK-MEL-5 melanoma) 8360 nM | GI50 (MDA-MB-435) 3850 nM | GI50 (DU-145 prostate) 30700 nM | GI50 (RPMI-8226 leukemia) 14800 nM | GI50 (OVCAR-8 ovarian) 15500 nM | GI50 (SW-620 colon) 25400 nM | GI50 (NCI-H23 lung) 40300 nM | GI50 (HOP-62 NSCLC) 18400 nM | GI50 (U251 CNS) 17600 nM | GI50 (UACC-257 melanoma) 9130 nM | GI50 (HCT-116 colon) 16400 nM | GI50 (UO-31 renal) 15900 nM | GI50 (LOX IMVI melanoma) 14900 nM | GI50 (SF-268 CNS) 11100 nM | GI50 (NCI/ADR-RES ovarian) 21900 nM | GI50 (A498 renal) 15800 nM | GI50 (SF-295 CNS) 19100 nM | GI50 (786-0 renal) 15700 nM | GI50 (K-562 leukemia) 10700 nM | GI50 (ACHN renal) > 50000 nM | GI50 (COLO 205 colon) 17500 nM | GI50 (KM12 colon) 15200 nM
> 50000 nM: TGI (COLO 205 colon)
35.1 µM: TGI (SF-268 CNS)
43.7 µM: TGI (HS 578T breast)
40700 nM: TGI (A498 renal)
48.9 µM: TGI (MDA-MB-231 breast)
45.7 µM: TGI (M14 melanoma)
27.7 µM: TGI (K-562 leukemia)
22.5 µM: TGI (MDA-MB-435)
35.2 µM: TGI (NCI-H522 lung)
29500 nM: TGI (SK-MEL-5 melanoma)
